This data set in a line: Compatibility of artesunate and ferroquine combined within one and the same tablet. It counts as physicochemical. The following applies: color of artesunate goes from white to brown. An excerpt:
However, artesunate and ferroquine are strongly incompatible if the two active ingredients are combined within one and the same tablet.

As for `C[C@H]1[C@H](OC(=O)CCC(=O)O)O[C@@H]2O[C@@]3(C)CC[C@H]4[C@H](C)CC[C@@H]1[C@@]24OO3` [artesunate, Artesunate], the “stability of artesunate when combined with ferroquine within the same tablet” value is “rapid increase in the level of artesunate degradation products”.

(Values after patent US20120237600A1, “MULTILAYER PHARMACEUTICAL COMPOSITION THAT CAN BE DISPERSED IN WATER AND WHICH CONTAINS A COMBINATION OF ANTIMALARIAL AGENTS” (SANOFI, priority 2009, published 2012).)
